Source: US12433892B2, “Compositions and methods of treatment for neurological disorders comprising depression” (Gliapharm SA, priority 2018, dated 2025)
Counter-ions that a name gives are not always drawn.

How the values were obtained:
[1] = In vivo pharmacokinetics (PFC microdialysis and plasma); parameters: species or system mouse; conditions: after gavage with 100 mg/kg
Description: Mice were anesthetized using isoflurane (2% and 800 mL/min O2). Before surgery, Finadyne (1 mg/kg, s.c.) was administered for analgesia during surgery and the post-surgical recovery period. A mixture of bupivacaine and epinephrine was used for local anesthesia of the incision site of the periost of the skull.
The animals were placed in a stereotaxic frame (Kopf instruments, USA). MetaQuant microdialysis probes with a 3 mm exposed polyacrylonitrile membrane (MQ-PAN 3/3, Brainlink, the Netherlands) were implanted into the prefrontal cortex (coordinates for the tip of the probe: AP=+2.0 mm (to bregma), lateral=−0.7 mm (to midline), ventral=−3.3 mm (to dura), with the incisor bar set at 0.0 mm and an angle of 8°). All coordinates were based on “The mouse brain in stereotaxic coordinates” by Paxinos and Franklin (2004). The probes were attached to the skull with a stainless steel screw and dental cement (Fuji Plus Capsules, Henry Schein, the Netherlands).
In the same surgical procedure, a catheter was placed into the jugular vein to accommodate blood sampling. An indwelling cannula was inserted into the right jugular vein, and exteriorized through an incision on top of the skull. The end of the jugular vein catheter was fixed in position with dental acrylic cement and attached to the skull with two stainless steel screws.
Experiments were initiated one day after surgery. The MetaQuant microdialysis probes were connected with flexible PEEK tubing (Western Analytical Products Inc. USA; PK005-020) to a microperfusion pump (CMA Microdialysis) and perfused with aCSF+0.2% BSA at a flow rate of 0.12 μL/min. Ultrapurified water+0.2% BSA was used as the carrier flow at a flow rate of 0.80 μL/min. After a minimum of 1.5 hours of prestabilization, microdialysis samples were collected in 30 minute intervals. Samples were collected into polystyrene microvials (Microbiotech/se AB, Sweden; 4001029) using an automated fraction collector (UV 8301501, TSE, Univentor, Malta). After collection of three basal samples, at t=0 minutes, drug of interest was administered per os. Eight additional samples were collected after compound administration. All samples were stored at −80° C. until off-line analysis.
In parallel, blood samples (50 μL) were taken from the jugular vein through the cannula. These samples were collected at specified intervals into vials containing 5 μL heparin (500 IE/mL in saline). The samples were mixed by inverting the tubes and, subsequently, centrifuged at 4000 rpm (1500×g) for 10 min at 4° C. The supernatant was stored as plasma in 1.5 mL Eppendorf vials (Sarstedt, Germany) at −80° C. until off-line analysis.
At the end of the experiment, the animals were euthanized and terminal brain tissue was collected for visual histological verification of the probe positions.
PK was measured for GP-04, GP-05, GP-07, GP-R1 and GP-P1 in the PFC (prefrontal cortex) and plasma of wild type C56Bl/6 mice by CRO Brainsonline.

astrocytes [2] = experiment: Intracellular glycogen quantification; assay type: cell-based, mouse; conditions: Prestwick hits; 10 uM, 3 h
Description: For glycogen dosage, a protein dosage was first performed in order to assess whether harvested astrocytes from primary cell cultures yielded enough and equivalent amounts of proteins comparing each replicate, and to ensure that the obtained differences in glycogen quantities were due to drug action and not to inner protein quantities.
Astrocytes used for these dosages were previously grown in 6-well plates for 17 days and stimulated with Vehicle (DMSO) or drug of interest (1 μM to 100 μM) for 180 min, at 37° C. 5% CO2/95% air in D5030 complete medium. Medium was removed and replaced with 600 μl of 30 mM Tris HCl, and stored at −20° C.
Proteins were dosed using the micro BCA Protein Assay kit (Thermo Scientific), as described in the manufacturer's instructions. Briefly, thawed cells were sonicated and 5 μl aliquots were placed in a transparent 96-well plate, to which we added 25 μl 30 mM Tris HCl, 70 μl H2O and 100 μl of a BCA mix (made as described in manufacturer's guidelines). After a 120 min-incubation at 37° C., absorbance was measured with Safire 2 spectrophotometer at a wavelength of 562 nm, and protein quantities were determined from a standard curve of Bovine Serum Albumin (BSA).
Glycogen was quantified using a 250 μl-aliquot of the same stimulated, thawed, and sonicated cells. After an incubation period of 30 min at 90° C. and 400 rpm, 28 μl of an acetic acid/sodium acetate (both from Sigma) 0.1M pH 4.6 buffer was added to each aliquot, which was then separated in two. Each split aliquot received whether 5 μl of amyloglucosidase (Roche) or 5 μl H2O, and all cell solutions were incubated for 120 min in a shaking 37° C.-waterbath. After a centrifugation at 16'000 G for 5 min, 20 μl of supernatant were placed 96-well plate, to which 150 μl of a mix containing 0.67 mM ATP (Roche), 0.67 mM NADP (Roche), 1.8% hexokinase/glucose-6-phosphate dehydrogenase (Roche) and 0.1M Tris Buffer-HCl/3.3 mM magnesium (Fluka)/pH 8.1 buffer was added. Fluorescence was measured with Safire 2 spectrophotometer (340 nm excitation/440 nm emission). Glycogen concentration was obtained by subtracting glucose value of samples with amyloglucosidase to samples without amyloglucosidase, and were expressed relative to the amount of proteins previously determined.
Levels of intracellular glycogen in astrocytes were measured at 3 h after stimulation with 20 hits from the Prestwick library (10 μM each), as shown in FIG. 2. n=6-10; Ctrl pos. is glutamate (0.5 mM). Statistical analysis consisted in ANOVA followed by Fisher LSD post-hoc test for pair-wise comparisons.
Statistical analysis consisted in ANOVA followed by Fisher LSD post-hoc test for pair-wise comparisons.

[3] = test system: cerebral extracellular lactate; experiment: In vivo pharmacodynamics: lactate biosensors in cortex; parameters: species or system mouse
Description: Extracellular levels of lactate were monitored in vivo using lactate biosensors (Pinnacle Technology), according to the manufacturer's instructions. Cannulae were surgically implanted in mice cerebral cerebral motor cortex areas M1/M2 (coordinates: +1.94 mm (to bregma), lateral −1.4 mm (to mideline), ventral −1.0 mm (to dura)) 5-7 days before administration of the compounds. Drugs were administered per os as previously described, and cerebral levels of extracellular lactate were dynamically recorded for 6 hours. Mice were administered vehicle alone first, followed 3 hours later by vehicle or drug (10 or 100 mg/kg). Area Under the Curve (AUC) quantifying the fluctuations of extracellular lactate concentrations for each of the compound tested was calculated using Graphad Prism and the ratio of AUC after drug over Vehicle administration was calculated. Groups of 8 male mice were used for each condition.
To measure biological effect of lead molecules in vivo in the brain, lactate levels were quantified after administration of the drug by using lactate biosensors implanted in the cortex of freely moving mice.

[4] = test system: C57Bl/6 male and female mice; experiment: In vivo chronic toxicity (28 days); conditions: 10 mg/kg per os once a day, 28 days
Description: During this period, clinical symptoms and weight were recorded.
Chronic toxicity was assessed.

primary astrocytes = experiment: Intracellular glycogen quantification, Example 2; assay type: cell-based, mouse; conditions: 10 μM, 3 h (GP-0157: 0.1, 1, 10 μM)
Description: To assess for the effect of the compounds of the invention, those were tested in primary astrocytes, as described below. Secretion of lactate was measured directly in the extracellular medium, and indirectly through the acidification of extracellular medium using extracellular pH sensor SNARE-5F-(AND-6)-CAR (SNARF5). Glucose uptake was measured by quantification 2-deoxyglucose in the cell. Cell Cultures Primary cultures of cerebrocortical astrocytes were obtained from 1 to 2-day-old OF1 mouse pups (Charles River). Briefly, cortices were isolated and minced in small pieces under a dissecting microscope. The cells were incubated for 30 min at 37° C. in a solution containing 20 U/ml papain, 1 mM L-cysteine and 10 kU/ml DNase I. After dissociation, papain activity was stopped by the addition of fetal calf serum (FCS). Single-cell suspension was then obtained by mechanical dissociation, which consisted in cells trituration in a DMEM D7777 medium supplemented with 44 mm NaHCO3, 10 ml/L antibiotic/antimycotic solution and 10% FCS. The cells were seeded at an average density of ˜10'000 cells/cm2 on poly-D-lysine coated 96- or 12-well culture plates, depending on their use, and grown in DMEM D7777 medium supplemented with 44 mm NaHCO3, 10 ml/L antibiotic/antimycotic solution and 10% FCS at 37° C. in a humidified atmosphere containing 5% CO2/95% air. Culture medium was renewed twice a week. Cells were stimulated and harvested between DIV14 and DIV17, when confluence and cell growth were optimal. Extracellular Medium Acidification (SNARF5) Secretion of lactate was measured indirectly through the acidification of extracellular medium using extracellular pH sensor […] (SNARF5). After washing cells twice with stimulation medium (DMEM (D5030, Sigma), 1 mM NaHCO2, and 5 mM Glucose, pH 7.4) at 37° C., cells were stimulated with compounds at a final concentration ranging from 10 nM to 30 μM in 50 μl per well of stimulation medium supplemented with 10 μM of SNARF5 (Life Technologies Corporation). Each compound was tested in two different plates for duplicates. After 90 min stimulation, fluorescence was read at exc. (excitation) 480 nm/emm. (emission) 580 nm and at exc 480 nm/emm. 630 nm. The ratio of fluorescence between 630 nm and 580 emission values, which is proportional to extracellular pH, was calculated. In each plate, 8 wells were used for negative controls (DMSO 0.1%) and 8 wells were used for positive controls (CCCP 2 μM in DMSO). The extracellular medium acidification in primary mouse astrocytes treated with GP-A1 was quantified (FIG. 13). Extracellular medium acidification was measured over a period of 1.5 h and 3 h. […] Extracellular Lactate Quantification Secretion of L-lactate was measured in the extracellular medium of 96-well plated astrocytes after 90 min stimulation (at 37° C., in 5% CO2/95% air conditions) with Vehicle (DMSO), the compounds of the invention (100 nM to 100 μM) or positive control. […] Stimulation medium was composed of D5030 medium complemented with 5 mM D-glucose and 44 mM sodium bicarbonate, pH 7.2. To quantify lactate concentrations in the extracellular medium, 200 μl of a 0.2M Glycine-semicarbazide buffer (pH 10) containing 3 mM NAD and 14 U/ml LDH was added to each well of a 96-well plate containing 30 μl aliquots of extracellular medium. Samples were incubated at 37° C. for 1 h. Fluorescence intensity (340 nm excitation/450 nm emission), which represents the amount of NADH produced, was measured, and lactate concentration values were determined relative to a standard curve of L-lactate concentrations. The release of lactate from primary mouse astrocytes treated with GP-A1 was quantified (FIG. 5A and FIG. 14). Accumulation of lactate in the extracellular medium was measured over a period of 1.5 h. […] Intracellular Glycogen Quantification Astrocytes grown on 12-well plates were used for intracellular glycogen quantifications. […]

astrocytes [5] = experiment: Intracellular glycogen quantification; assay type: cell-based, mouse; conditions: CDC54K hits; 10 uM, 3 h

Structure (SMILES)	levels in the PFC [1]	mobilization of intracellular glycogen (primary astrocytes)	other results
N=C(N)N1CCc2ccccc2C1 [Debrisoquin sulfate]	at therapeutic range (100 nM to 1 uM) and sustained over several hours		Glycogen (statistical significance of glycogen degradation) (astrocytes [2]): **** (****p<0.0001); cerebral lactate (AUC ratio vs vehicle) ([3]; 10 mg/kg per os): Significant increase
C[N+]1(C)CCC(=C(c2ccccc2)c2ccccc2)CC1 [Diphemanil methylsulfate]	at therapeutic range (100 nM to 1 uM) and sustained over several hours		chronic toxicity (toxic or safe) [4]: safe; Glycogen (statistical significance of glycogen degradation) (astrocytes [2]): **** (****p<0.0001); cerebral lactate (AUC ratio vs vehicle) ([3]; 10 mg/kg per os): Significant increase
Cc1ccccc1NC(=O)C1CCCN(c2ncnc3oc(C)c(C)c23)C1 (centres unmarked) [F228-0422]		significantly enhance the mobilization of intracellular glycogen	
CCc1nc(-c2csc(S(=O)(=O)NCc3ccc4c(c3)OCO4)c2)no1 [L287-0468]		significantly enhance the mobilization of intracellular glycogen	
CCn1nccc1-c1csc(S(=O)(=O)Nc2ccc(Cl)cc2F)c1 [L924-1031]		significantly enhance the mobilization of intracellular glycogen	
CC(=O)N1CCc2sc(S(=O)(=O)N3CCN(c4ccccc4C)CC3)cc2C1 [P025-0159]	need chemical improvement to reach their target at therapeutic dose in the brain	significantly enhance the mobilization of intracellular glycogen	cerebral lactate (AUC ratio vs vehicle) ([3]; 100 mg/kg per os): Significant increase
COc1ccc(Nc2nc(N3CCOCC3)c3ccccc3n2)cc1.Cl [T0508-5190]		significantly enhance the mobilization of intracellular glycogen	Glycogen (statistical significance of glycogen degradation) (astrocytes [5]): ** (**p<0.01)
c1ccc2c(c1)CCN(c1ncnc3sccc13)C2 [T0517-8250]		significantly enhance the mobilization of intracellular glycogen	
N#Cc1ccc(C(=O)N2CCC(Nc3ncnc4c3CCC4)C2)cc1 (centres unmarked) [T636-2387]		significantly enhance the mobilization of intracellular glycogen	cerebral lactate (AUC ratio vs vehicle) ([3]; 100 mg/kg per os): Significant increase
COc1cc(C)c(Cl)cc1S(=O)(=O)NCc1ccncc1 [T5580243]	at therapeutic range (100 nM to 1 uM) and sustained over several hours		cerebral lactate (AUC ratio vs vehicle) ([3]; 100 mg/kg per os): Significant increase
O=C1CCCN1c1ccc(S(=O)(=O)Nc2cccc(/C=C/c3ccccn3)c2)cc1 [T5644989]		significantly enhance the mobilization of intracellular glycogen	
COc1cccc(CNS(=O)(=O)c2ccc3c(c2)CCCN3C(C)=O)c1 [T5967389]			Glycogen (statistical significance of glycogen degradation) (astrocytes [5]): * (*p<0.05)
Cc1nc2ccc(NS(=O)(=O)c3cccc(F)c3)cc2s1 [T6937001]		significantly enhance the mobilization of intracellular glycogen	
